Experimental data as given in patent publication US20250353891A1 (MEDIMMUNE LIMITED, priority 2022, published 2025).
Like-named read-outs stand apart in the source and are kept apart here. Starred links: 1 amine or outer side, 2 acyl side, 3 side chain; linkers in the order of their positions; H or OH if unused. Non-standard residues stand in square brackets, D forms with d. Residues, ends and D or L forms follow the SMILES beside them. Groups on a side chain read outwards from the residue. *: point of attachment. C20 diacid = O=C(O)CCCCCCCCCCCCCCCCCCC(=O)*; C18 diacid = O=C(O)CCCCCCCCCCCCCCCCC(=O)*; γGlu = O=C(O)[C@H](CCC(=O)[*:2])N[*:1]; αMeF = C[C@](N)(Cc1ccccc1)C(=O)O; AEEA = NCCOCCOCC(=O)O; Aib = CC(C)(N)C(=O)O

What was measured:
[1] = Mouse acute food intake study; assay type: in vivo; conditions: male C57Bl/6 mice, s.c., cumulative food intake at 24 hr vs vehicle
Procedure, shortened: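 Single-housed male C57Bl/6 mice (8-9 weeks on arrival), chow-fed, acclimated and sham-dosed ≥2 times, were fasted 6-8 h, then given vehicle or peptide subcutaneously at 5 mL/kg 1-2 h before lights out. Food intake was recorded automatically over 48 h and analysed as cumulative intake.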

[2] = tested on: GLP-1R knockout (KO) mice; assay: Glucose change in GLP-1R knockout mice; assay type: in vivo, mouse; conditions: GLP-1R KO mice, s.c.; for GLP-1R KO % glucose change 120 min: 120 min vs 0 min; for GLP-1R KO % glucose change - 60 min: 60 min vs 0 min
Description: (§1) They acclimated for a minimum of ˜1-2 weeks, and mice were sorted into groups (n=4-8/group) based on body weight. On day of study, mice were fasted briefly for 2 hrs prior to study start. In some studies, mice were pre-treated with octreotide (BaChem, 10 mg/kg) at 30 minutes prior to peptide injection. Glucose was measured via glucometer at various timepoints including-30 min (prior to octreotide when used in studies), 0 min (before peptide dose), 30, 60, 120, 180, 240, and 360 minutes. Since these studies are acute in nature, mice were re-used for multiple studies (no more than 3) and always allowed at least a minimum wash-out period of 1 week.

[3] = tested on: wildtype (WT) mice; assay: Glucose change in wildtype mice; assay type: in vivo, mouse; conditions: s.c.; for WT % glucose change 120 min: 120 min vs 0 min; for WT % glucose change 60 min: 60 min vs 0 min
Description: as §1, with “GLP-1R knockout (KO) and wildtype (WT) mice at 8-14 weeks of age were singly housed on standard chow diet (Envigo, 2918) and automatic water. They” for “They”

[4] = target: human GLP-1 receptor (hGLP-1R) (Homo sapiens, UniProt P43220); assay: cAMP production (HTRF) in CHO cells expressing hGLP-1R; assay type: cell-based; set-up: expressed in transfected cells; conditions: for EC50: geometric mean, read-out: hGLP-1R EC50; for % Relative Potency Ratio: % GLP-1R activity relative to GLP-1 / % GlucR activity relative to glucagon
Sequence of human GLP-1 receptor (hGLP-1R) (P43220 24-463): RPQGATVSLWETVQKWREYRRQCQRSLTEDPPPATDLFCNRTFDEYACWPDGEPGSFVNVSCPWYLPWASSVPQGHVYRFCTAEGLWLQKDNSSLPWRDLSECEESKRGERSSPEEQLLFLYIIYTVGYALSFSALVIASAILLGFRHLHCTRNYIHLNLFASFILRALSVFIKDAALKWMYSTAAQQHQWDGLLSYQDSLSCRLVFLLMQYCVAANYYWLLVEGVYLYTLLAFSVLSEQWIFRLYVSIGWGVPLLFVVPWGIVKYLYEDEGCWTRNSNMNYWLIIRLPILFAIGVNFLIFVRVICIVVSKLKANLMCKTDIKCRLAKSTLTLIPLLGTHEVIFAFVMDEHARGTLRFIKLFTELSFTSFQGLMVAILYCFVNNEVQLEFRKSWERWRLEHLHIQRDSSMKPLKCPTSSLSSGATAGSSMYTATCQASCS
Procedure, shortened: (§2)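 Cells were resuspended in assay buffer at batch-optimized density, typically 1×10^5 cells/mL for hGLP-1R and 2×10^5 cells/mL for hGCGR. After 30 min incubation at room temperature with compound, cAMP was measured by two-step HTRF. EC50 values came from 4-parameter logistic fits of % Delta F.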

[5] = target: human glucagon receptor (hGCGR) (Homo sapiens, UniProt P47871); assay: cAMP production (HTRF) in CHO cells expressing hGCGR; assay type: cell-based; set-up: expressed in transfected cells; conditions: geometric mean, read-out: hGluc-R EC50
Sequence of human glucagon receptor (hGCGR) (P47871 26-477): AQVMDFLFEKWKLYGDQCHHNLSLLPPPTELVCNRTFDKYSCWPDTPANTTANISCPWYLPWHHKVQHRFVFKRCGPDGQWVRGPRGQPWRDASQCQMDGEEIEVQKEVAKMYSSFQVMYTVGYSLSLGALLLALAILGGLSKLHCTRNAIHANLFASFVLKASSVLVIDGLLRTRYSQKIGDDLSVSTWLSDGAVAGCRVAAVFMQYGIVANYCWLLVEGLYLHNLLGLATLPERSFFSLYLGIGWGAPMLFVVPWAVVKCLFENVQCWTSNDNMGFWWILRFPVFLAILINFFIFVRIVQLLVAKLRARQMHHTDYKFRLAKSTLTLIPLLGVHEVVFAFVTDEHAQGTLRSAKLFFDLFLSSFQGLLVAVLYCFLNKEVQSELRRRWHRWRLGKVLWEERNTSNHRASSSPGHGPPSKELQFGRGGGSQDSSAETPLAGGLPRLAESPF
Procedure, shortened: as §2

[6] = 10 nmol/kg, no somatostatin pretreatment
[7] = 30 nmol/kg, no somatostatin pretreatment
[8] = Table 7, peptides modified at position 20, cAMP in CHO hGLP-1R cells
[9] = Table 7, peptides modified at position 20, cAMP in CHO hGCGR cells
[10] = 10 nmol/kg, somatostatin pretreatment (octreotide) 30 min prior to cpd
[11] = 30 nmol/kg, somatostatin pretreatment (octreotide) 30 min prior to cpd

| EC50 [4, 8] [nM] | % Relative Potency Ratio ([4]; Table 7) | EC50 [5, 9] [nM] | % Relative Potency Ratio [4] | EC50 ([4]; cAMP, CHO cells, 0.1% BSA) [nM] | EC50 ([5]; cAMP, CHO cells, 0.1% BSA) [nM] | SMILES | 24 hr % Vehicle Food Intake ([1]; dose 3 nmol/kg) [%] | 24 hr % Vehicle Food Intake ([1]; dose 10 nmol/kg) [%] | GLP-1R KO % glucose change 120 min [2, 6] [%] | GLP-1R KO % glucose change 120 min [2, 7] [%] | WT % glucose change 120 min [3, 6] [%] | WT % glucose change 120 min [3, 7] [%] | GLP-1R KO % glucose change - 60 min [2, 6] [%] | GLP-1R KO % glucose change - 60 min [2, 7] [%] | WT % glucose change 60 min [3, 6] [%] | WT % glucose change 60 min [3, 7] [%] | GLP-1R KO % glucose change 120 min [2, 10] [%] | GLP-1R KO % glucose change 120 min [2, 11] [%] | WT % glucose change 120 min [3, 10] [%] | WT % glucose change 120 min [3, 11] [%] |
| --- | --- | --- | --- | --- | --- | --- | --- | --- | --- | --- | --- | --- | --- | --- | --- | --- | --- | --- | --- | --- |
| 0.118 | 2.5 | 0.148 |  |  |  | CC[C@H](C)[C@H](NC(=O)[C@H](Cc1c[nH]c2ccccc12)NC(=O)[C@H](CCC(N)=O)NC(=O)[C@@H](NC(=O)[C@H](Cc1ccccc1)NC(=O)[C@H](CC(=O)O)NC(=O)[C@H](CCCCNC(=O)COCCOCCNC(=O)COCCOCCNC(=O)CC[C@H](NC(=O)CC[C@H](NC(=O)CCCCCCCCCCCCCCCCCCC(=O)O)C(=O)O)C(=O)O)NC(=O)[C@H](C)NC(=O)[C@H](C)NC(=O)[C@H](CCCNC(=N)N)NC(=O)[C@H](CO)NC(=O)[C@H](CC(=O)O)NC(=O)[C@H](CC(C)C)NC(=O)[C@H](Cc1ccc(O)cc1)NC(=O)[C@H](CCCCN)NC(=O)[C@H](CO)NC(=O)[C@@H](NC(=O)[C@H](CC(=O)O)NC(=O)[C@H](CO)NC(=O)[C@@H](NC(=O)[C@](C)(Cc1ccccc1)NC(=O)[C@H](CO)NC(=O)CNC(=O)[C@H](Cc1c[nH]cn1)NC(=O)C(C)(C)NC(=O)[C@@H](N)Cc1c[nH]cn1)[C@@H](C)O)C(C)C)C(C)C)C(=O)N[C@@H](C)C(=O)N[C@@H](CC(N)=O)C(=O)N[C@H](C(N)=O)[C@@H](C)O [Peptide 289] (H-H[Aib]HGS[αMeF]TSDVSKYLDSRAAK([AEEA-AEEA-γGlu-γGlu-C20 diacid])DFVQWIANT-NH2) | 76.1 | 49.6 | 8.9 | 7.7 | −8.5 | −16.1 |  |  |  |  |  |  |  |  |
| 0.0553 | 1.1 | 0.0318 |  |  |  | CC[C@H](C)[C@H](NC(=O)C(C)(C)NC(=O)[C@H](C)NC(=O)[C@@H](NC(=O)[C@](C)(Cc1ccccc1)NC(=O)[C@H](CC(=O)O)NC(=O)[C@H](CCCCNC(=O)COCCOCCNC(=O)COCCOCCNC(=O)CC[C@H](NC(=O)CCCCCCCCCCCCCCCCC(=O)O)C(=O)O)NC(=O)[C@H](C)NC(=O)[C@H](C)NC(=O)[C@H](CCCNC(=N)N)NC(=O)[C@H](CO)NC(=O)[C@H](CC(=O)O)NC(=O)[C@H](CC(C)C)NC(=O)[C@](C)(Cc1ccccc1)NC(=O)[C@H](CCCCN)NC(=O)[C@H](CO)NC(=O)[C@@H](NC(=O)[C@H](CC(=O)O)NC(=O)[C@H](CO)NC(=O)[C@@H](NC(=O)[C@](C)(Cc1ccccc1)NC(=O)[C@H](CO)NC(=O)CNC(=O)[C@H](Cc1c[nH]cn1)NC(=O)C(C)(C)NC(=O)[C@@H](N)Cc1c[nH]cn1)[C@@H](C)O)C(C)C)[C@@H](C)CC)C(=O)N[C@@H](C)C(=O)N[C@@H](CCC(=O)O)C(=O)N[C@H](C(N)=O)[C@@H](C)O [Peptide 301] (H-H[Aib]HGS[αMeF]TSDVSK[αMeF]LDSRAAK([AEEA-AEEA-γGlu-C18 diacid])D[αMeF]IA[Aib]IAET-NH2; N-terminus assumed) |  | 54.9 |  |  |  |  | 29.1 | 17.9 | −43 | −35.7 |  |  |  |  |
|  |  |  | 1.3 | 0.0357 | 0.0236 | CC[C@H](C)[C@H](NC(=O)[C@H](Cc1c[nH]c2ccccc12)NC(=O)[C@H](CCCCNC(=O)COCCOCCNC(=O)COCCOCCNC(=O)CC[C@H](NC(=O)CCCCCCCCCCCCCCCCC(=O)O)C(=O)O)NC(=O)[C@@H](NC(=O)[C@H](Cc1ccccc1)NC(=O)[C@H](CC(=O)O)NC(=O)[C@H](CCC(N)=O)NC(=O)[C@H](C)NC(=O)[C@H](C)NC(=O)[C@H](CCCNC(=N)N)NC(=O)[C@H](CO)NC(=O)[C@H](CC(=O)O)NC(=O)[C@H](CC(C)C)NC(=O)[C@](C)(Cc1ccccc1)NC(=O)[C@H](CCCCN)NC(=O)[C@H](CO)NC(=O)[C@@H](NC(=O)[C@H](CC(=O)O)NC(=O)[C@H](CO)NC(=O)[C@@H](NC(=O)[C@](C)(Cc1ccccc1)NC(=O)[C@H](CO)NC(=O)CNC(=O)[C@H](Cc1c[nH]cn1)NC(=O)C(C)(C)NC(=O)[C@@H](N)Cc1c[nH]cn1)[C@@H](C)O)C(C)C)C(C)C)C(=O)N[C@@H](C)C(=O)N[C@@H](CC(N)=O)C(=O)N[C@H](C(N)=O)[C@@H](C)O [Peptide 361] (H-H[Aib]HGS[αMeF]TSDVSK[αMeF]LDSRAAQDFVK([AEEA-AEEA-γGlu-C18 diacid])WIANT-NH2; N-terminus assumed) |  | 78.8 |  |  |  |  |  |  |  |  | 91.5 | 93.8 | −23.0 | −38.1 |
